Assay results: paper PMC9422132, “Membrane transporters control cerebrospinal fluid formation independently of conventional osmosis to modulate intracranial pressure” (Fluids and Barriers of the CNS, 2022)

Target: T1, NBCe2 (Rattus norvegicus, UniProt Q6RI88)
T1 construct: gene Slc4a5
T1 sequence (Q6RI88 1-1112): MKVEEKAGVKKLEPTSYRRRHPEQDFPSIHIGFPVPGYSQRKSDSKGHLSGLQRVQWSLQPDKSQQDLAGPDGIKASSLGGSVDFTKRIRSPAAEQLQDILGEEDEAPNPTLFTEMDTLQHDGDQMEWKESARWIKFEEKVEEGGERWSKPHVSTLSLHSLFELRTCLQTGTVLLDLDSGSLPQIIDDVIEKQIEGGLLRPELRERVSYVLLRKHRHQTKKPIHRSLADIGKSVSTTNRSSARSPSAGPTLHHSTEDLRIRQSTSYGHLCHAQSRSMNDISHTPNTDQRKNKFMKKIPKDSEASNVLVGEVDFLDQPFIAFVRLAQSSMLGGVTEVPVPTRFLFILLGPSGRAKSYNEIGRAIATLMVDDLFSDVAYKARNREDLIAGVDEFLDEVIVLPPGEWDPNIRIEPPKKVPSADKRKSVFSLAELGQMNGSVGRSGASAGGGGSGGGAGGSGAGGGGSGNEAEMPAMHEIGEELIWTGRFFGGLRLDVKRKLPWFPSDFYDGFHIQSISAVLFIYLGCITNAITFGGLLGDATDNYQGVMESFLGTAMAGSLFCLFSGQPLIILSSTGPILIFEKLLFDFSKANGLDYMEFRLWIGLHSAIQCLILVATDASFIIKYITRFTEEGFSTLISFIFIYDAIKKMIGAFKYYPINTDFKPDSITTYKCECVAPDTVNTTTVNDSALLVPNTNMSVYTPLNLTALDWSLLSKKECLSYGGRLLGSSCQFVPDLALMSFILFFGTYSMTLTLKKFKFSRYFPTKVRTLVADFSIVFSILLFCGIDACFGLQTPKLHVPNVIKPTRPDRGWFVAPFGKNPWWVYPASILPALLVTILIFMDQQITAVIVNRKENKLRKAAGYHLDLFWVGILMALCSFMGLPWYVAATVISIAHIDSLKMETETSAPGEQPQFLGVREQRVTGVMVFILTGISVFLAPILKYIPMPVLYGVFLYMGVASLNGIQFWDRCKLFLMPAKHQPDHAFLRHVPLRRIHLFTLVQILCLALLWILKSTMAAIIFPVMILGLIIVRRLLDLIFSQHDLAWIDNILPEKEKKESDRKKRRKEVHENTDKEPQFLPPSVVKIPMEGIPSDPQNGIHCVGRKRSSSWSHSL
Assay: two-electrode voltage clamp of rat NBCe2 expressed in Xenopus laevis oocytes
Format: cell-based

Structure (SMILES)	IC50
O=S(=O)(O)c1cc(N=C=S)ccc1/C=C/c1ccc(N=C=S)cc1S(=O)(=O)O [DIDS]	4.5 ± 1.8 µM
Cc1ccc(CN(Cc2ccc(-c3ccccc3S(=O)(=O)NC#N)cc2)C(=O)c2ccccc2Cl)cc1 [S0859]	10.7 ± 0.9 µM
